Measurements taken from patent EP1487791B1, “A NOVEL ANTIFUNGAL MOLECULE 2-(3,4-DIMETHYL-2,5-DIHYDRO-1H-PYRROL-2-YL)- METHYLETHYL PENTANOATE” (priority 2002, dated 2003).
In brackets after ≈: the same amount, converted by molar mass.

Columns and labels:
[1] = test system: A. fumigatus; assay: In vivo efficacy, survival in mice model of aspergillosis; parameters: species or system Balb/C mice; conditions: oral; probit of percent survival against log dose
Source text: In vivo efficacy of the compound against A. fumigatus infection was studied in the Balb/C mice of 6-8 weak of age of either sex, weighing 15-20 g each. The mice model of aspergillosis described by Dixon et al (1989), was used to study the effects of compound on in vivo infection of A. fumigatus.
The animals were housed in the micro-barrier cages on sterile bedding and fed ad libitum water and food. The mice were divided into 6 groups and each group contained 8-10 animals. The mice were infected experimentally with A. fumigatus. Three days prior to infection with conidia, mice were injected subcutaneously with 3 doses (250.0 mg/kg/day) of cortisone acetate in 400.0 µl of PBS. On the infection day, each mouse received 2x10^7 conidia by nasal instillation of a single droplet of conidial suspension. […]
A. fumigatus (190/96) isolate was grown on Sabouraud dextrose agar plates at 37 °C for 4 days. […] The number of conidia, was counted and adjusted to 1x10^8 conidia/ml. The viability of the conidia was determined by plating the dilutions of suspensions on Sabouraud dextrose agar. […]
The animals were housed in properly labeled cages and kept under close watch for weight loss and the mortality. The survival rate over a period of 10 days was calculated and the fungal burden in survivors determined (Clemons and Stevens, 1994). […]

[2] = test system: A. niger; assay: Microbroth dilution assay; format: cell-based; parameters: key: +ve if medium appeared clear with out any growth of fungi; -ve if growth was there
Method: (§1) Pathogenic strains of fungi were obtained from the Mycology Department of Vallabhbhai Patel Chest Institute, Delhi. All the strains were grown on Sabouraud dextrose agar at 37°C. The conidia form these cultures were harvested and suspended in Sabouraud maltose broth. The number of conidia was counted using haemocytometer and their number in the suspension was adjusted to as per need of the experiment.
(§2) The antifungal susceptibility of the fungi to various fractions or the purified component was assayed by the microbroth, dilution method (Forthergill A.W. and McGough A.W., 1995, Clin. Microbiol. Procedure Handbook. In Vitro susceptibility Testing of Yeast, 5.15.1-5.15.15). The fungal spores were harvested from 96-h cultures and their number adjusted to 1x10^6 per ml. The Sabouraud Dextrose medium was dissolved in glass double distilled water and autoclaved at 10 psi for 15 min. 90-µl medium was added into the wells of cell culture plates. The different concentrations of the extract, fractions or the purified compound were prepared in duplicate wells and then the wells were inoculated with 10 µl of spore suspension. The plates were incubated at 37°C and examined macroscopically after 48 h for the growth of fungal mycelia. The activity was represented as -ve if growth was there and +ve if medium appeared clear with out any growth of fungi.
(§3) The antifungal susceptibility of the fungi to the purified compound was assayed by the microbroth dilution method. The different concentrations of the purified compound ranging from 21.87 to 350 µg/ml were prepared in duplicate wells by twofold dilution method. The test was done as described above. […] Table 1: Activity of the compound against Aspergillus sp. after 48 hrs.

[3] = test system: A. fumigatus; assay: Microbroth dilution assay; format: cell-based; parameters: key: +ve if medium appeared clear with out any growth of fungi; -ve if growth was there
Method: as §1, §2, §3

[4] = test system: A.flavus; assay: Microbroth dilution assay; format: cell-based; parameters: key: +ve if medium appeared clear with out any growth of fungi; -ve if growth was there
Method: as §1, §2, §3

[5] = test system: A.fumigatus; assay: Disc diffusion assay; format: cell-based
Method: as §1
The disc diffusion test was performed as per described in the section of details of invention. Amphotericin B 1.25 µg/disc was used in assay as positive control standard drug. Additional discs impregnated with equivalent amount of solvent were also used in the assay as negative controls (Fig: 5). […] Table 2: Antifungal activity of compound by disc diffusion method
The potency of the compound was determined with the help of standard curve constructed using amphotericin B as standard drug against A.fumigatus. Standard curve was prepared according to method given in the Indian Pharmacopoeia. The corrected values of diameter of zone of inhibition along with lowest and highest values were determined. These values were plotted on semilog paper to prepare standard curve. The value of diameter of zone of inhibition obtained for compound was put into the standard curve and corresponding dose producing the effect equivalent to amphotericin B was determined to find out the potency of the compound (Fig: 6).

[6] = test system: Aspergillus sp.; assay: Microbroth dilution assay, MIC over the three species; format: cell-based; conditions: no visual growth of the three species of Aspergillus, 48 h
Method: as §1
as §2, with “fungi. […]” for “fungi.”

## CCCCC(=O)OC(C)CC1NCC(C)=C1C (stereo not shown) [PC-1, 2-(3,4-dimethyl-2,5-dihydro-1H-pyrrol-2-yl)-1-methylethyl pentanoate]
[1]
  ED50 (effective dose required to confer protection in 50% of the animals): 167.0 mg/kg body weight
[2]; 21.87 µg/ml
  Activity against Aspergillus sp. after 48 hrs: -
[2]; 43.75 µg/ml
  Activity against Aspergillus sp. after 48 hrs: -
[2]; 87.50 µg/ml
  Activity against Aspergillus sp. after 48 hrs: +
[2]; 175.00 µg/ml
  Activity against Aspergillus sp. after 48 hrs: +
[2]; 350.00 µg/ml
  Activity against Aspergillus sp. after 48 hrs: +
[3]; 21.87 µg/ml
  Activity against Aspergillus sp. after 48 hrs: -
[3]; 43.75 µg/ml
  Activity against Aspergillus sp. after 48 hrs: -
[3]; 87.50 µg/ml
  Activity against Aspergillus sp. after 48 hrs: +
[3]; 175.00 µg/ml
  Activity against Aspergillus sp. after 48 hrs: +
[3]; 350.00 µg/ml
  Activity against Aspergillus sp. after 48 hrs: +
[4]; 21.87 µg/ml
  Activity against Aspergillus sp. after 48 hrs: -
[4]; 43.75 µg/ml
  Activity against Aspergillus sp. after 48 hrs: -
[4]; 87.50 µg/ml
  Activity against Aspergillus sp. after 48 hrs: +
[4]; 175.00 µg/ml
  Activity against Aspergillus sp. after 48 hrs: +
[4]; 350.00 µg/ml
  Activity against Aspergillus sp. after 48 hrs: +
[5]; 10 µg/disc of the compound, standard curve with amphotericin B
  amount of amphotericin B producing an equivalent diameter of zone of inhibition: 2.67 µg
[5]; Aspergillus fumigatus, 5.0 µg/disc, 48 hrs, read-out: Diameter of zone of inhibition
  zone of inhibition at 5 µg/disc: 6.25 mm
[5]; Aspergillus fumigatus, 10.0 µg/disc, 48 hrs, read-out: Diameter of zone of inhibition
  zone of inhibition at 10 µg/disc: 8.5 mm
[5]; Aspergillus fumigatus, 20.0 µg/disc, 48 hrs, read-out: Diameter of zone of inhibition
  zone of inhibition at 20 µg/disc: 9.25 mm
[5]; disc diffusion standard curve
  less potent as compared to amphotericin B: 3.74 time
[6]
  MIC: 87.5 µg/mL (≈ 366 µM)
